Molecular target: CDK2 (UniProt P24941)
Assay: Enzyme Assay

Row | IC50 [nM] | SMILES
1 | < 100 | CC(C)c1nn(-c2c(Cl)cccc2Cl)c2nc(Cc3ccc(OCCN4CCOCC4)c(O)c3)[nH]c(=O)c12
2 | < 100 | O=C(Nc1cccc2c1C(=O)c1c(-c3ccc(CN4CCN(c5cccc(C(F)(F)F)c5)CC4)cc3)n[nH]c1-2)NN1CCOCC1
3 | < 100 | CN1CCN(NC(=O)Nc2cccc3c2C(=O)c2c(-c4ccc(OCCN5CCCC5)cc4F)n[nH]c2-3)CC1
4 | < 100 | Cc1noc(COc2ccc(-c3[nH]nc4c3C(=O)c3c(NC(=O)NN5CCN(C)CC5)cccc3-4)cc2)n1
5 | < 100 | CC(C)c1nn(-c2c(Cl)cc(Cl)cc2Cl)c2nc(Cc3ccc(OCCO)cc3)[nH]c(=O)c12
6 | < 100 | O=C(Nc1cccc2c1C(=O)c1c(-c3ccc(CN4CCC[C@H]4CO)cc3)n[nH]c1-2)NN1CCOCC1
7 | < 100 | Cc1cc(OCCN2CCCN(C)CC2)ccc1-c1[nH]nc2c1C(=O)c1c(NC(=O)NN3CCN(C)CC3)cccc1-2
8 | < 100 | Cc1cc(OCCN2CCOCC2)ccc1-c1[nH]nc2c1C(=O)c1c(NC(=O)NN3CCN(C)CC3)cccc1-2
9 | < 100 | O=C(Nc1cccc2c1C(=O)c1c(-c3ccc(CN4CCN(c5ccccn5)CC4)cc3)n[nH]c1-2)NN1CCOCC1
10 | < 100 | O=C(Nc1cccc2c1C(=O)c1c(-c3ccc(OCc4nnn[nH]4)cc3)n[nH]c1-2)NN1CCOCC1
11 | < 100 | O=C(Nc1cccc2c1C(=O)c1c-2n[nH]c1-c1ccc(OCC(=O)N2CCOCC2)cc1)NN1CCOCC1
12 | < 100 | CC(C)N1CCN(Cc2cc(-c3[nH]nc4c3C(=O)c3c(NC(=O)NN5CCOCC5)cccc3-4)ccc2O)CC1
13 | < 10 | CC(C)N1CCN(S(=O)(=O)c2ccc(-c3[nH]nc4c3C(=O)c3c(NC(=O)NN5CCOCC5)cccc3-4)cc2)CC1
14 | < 10 | Cc1cc(OCCCN2CCN(C(C)C)CC2)ccc1-c1[nH]nc2c1C(=O)c1c(NC(=O)NN3CCOCC3)cccc1-2
15 | < 100 | CN1CCN(NC(=O)Nc2cccc3c2C(=O)c2c-3n[nH]c2-c2ccc(OCCN3CCC[C@H]3CO)cc2)CC1
16 | < 100 | CC(C)c1nn(-c2c(Cl)cccc2Cl)c2nc(Cc3ccc(OCCO)cc3)[nH]c(=O)c12
17 | < 100 | Cc1noc(COc2ccc(-c3[nH]nc4c3C(=O)c3c(NC(=O)NN5CCOCC5)cccc3-4)cc2)n1
18 | < 100 | CC(C)c1nn(-c2c(Cl)cc(Cl)cc2Cl)c2nc(Cc3ccc(NS(=O)(=O)CCCN4CCN(C(C)C)CC4)cc3)[nH]c(=O)c12
19 | < 10 | O=C(O)COc1ccc(-c2n[nH]c3c2C(=O)c2c(NC(=O)NN4CCOCC4)cccc2-3)cc1
20 | < 10 | COc1ccc(Cc2nc3c(c(C(C)C)nn3-c3c(Cl)cccc3Cl)c(=O)[nH]2)cc1
21 | < 100 | O=C(Nc1cccc2c1C(=O)c1c(-c3ccc(OCCN4CCOCC4)cc3Cl)n[nH]c1-2)NN1CCOCC1
22 | < 10 | O=C(Nc1cccc2c1C(=O)c1c(-c3ccc(CNC(CO)CO)cc3)n[nH]c1-2)NN1CCOCC1
23 | < 1000 | CCN1CCN(S(=O)(=O)c2cc(Cl)c(-n3nc(C(C)C)c4c(=O)[nH]c(Cc5ccc(OCCN6CCOCC6)cc5)nc43)c(Cl)c2)CC1
24 | < 100 | Cc1cc(-c2[nH]nc3c2C(=O)c2c(NC(=O)NN4CCOCC4)cccc2-3)ccc1OCCN1CCCC1
25 | < 100 | CC(C)c1nn(-c2c(Cl)cccc2Cl)c2nc(Cc3ccc(CN4CCCC4)c(O)c3)[nH]c(=O)c12
26 | < 100 | CC(C)C(N)C(=O)OCCN1CCN(NC(=O)Nc2cccc3c2C(=O)c2c-3n[nH]c2-c2ccc(OCCN3CCCC3)cc2)CC1 (configuration not stated)
27 | < 100 | O=C(Nc1cccc2c1C(=O)c1c(-c3ccc(CN4CCCC4)cc3)n[nH]c1-2)NN1CCOCC1
28 | < 100 | O=C(Nc1cccc2c1C(=O)c1c-2n[nH]c1-c1ccc(O)c(CN2CCOCC2)c1)NN1CCOCC1

Row | IC50 [nM] | SMILES
29 | < 100 | O=C(Nc1cccc2c1C(=O)c1c(-c3ccc(CNCCOCCO)cc3)n[nH]c1-2)NN1CCOCC1
30 | < 10 | CC(C)c1nn(-c2c(Cl)cccc2Cl)c2nc(Cc3ccc(O)cc3)[nH]c(=O)c12
31 | < 100 | CC(C)N1CCN(CCOc2ccc(-c3n[nH]c4c3C(=O)c3c(NC(=O)NN5CCOCC5)cccc3-4)c(F)c2)CC1
32 | < 100 | CC(C)c1nn(-c2c(Cl)cc(Cl)cc2Cl)c2nc(Cc3ccc(CN4CCN(C(C)C)CC4)n3C)[nH]c(=O)c12
33 | < 100 | CC(C)c1nn(-c2c(Cl)cc(Cl)cc2Cl)c2nc(Cc3ccc(NS(=O)(=O)CCCN4CCCCC4)cc3)[nH]c(=O)c12
34 | < 100 | CN1CCN(NC(=O)Nc2cccc3c2C(=O)c2c-3n[nH]c2-c2ccc(OCCN3CC[C@H](O)C3)cc2)CC1
35 | < 100 | CN1CCN(NC(=O)Nc2cccc3c2C(=O)c2c-3n[nH]c2-c2ccc(O)cc2)CC1
36 | < 100 | CN1CCN(NC(=O)Nc2cccc3c2C(=O)c2c(-c4ccc(OCCN5CCCC5)c(F)c4)n[nH]c2-3)CC1
37 | < 100 | Cc1cc(OCCN2CCCCC2)ccc1-c1[nH]nc2c1C(=O)c1c(NC(=O)NN3CCN(C)CC3)cccc1-2
38 | < 10 | Cc1nc(Cc2nc3c(c(C(C)C)nn3-c3c(Cl)cccc3Cl)c(=O)[nH]2)cs1
39 | < 100 | CC(C)c1nn(-c2c(Cl)cccc2Cl)c2nc(Cc3ccc(C(=O)NOCCN4CCOCC4)cc3)[nH]c(=O)c12
40 | < 100 | CCOC(=O)COc1ccc(-c2[nH]nc3c2C(=O)c2c(NC(=O)NN4CCOCC4)cccc2-3)cc1
41 | < 10 | CC(C)N1CCN(NC(=O)Nc2cccc3c2C(=O)c2c-3n[nH]c2-c2ccc(OCCN3CCCC3)cc2)CC1
42 | < 100 | O=C(Nc1cccc2c1C(=O)c1c(-c3ccc(CN4CCN(CCO)CC4)cc3)n[nH]c1-2)NN1CCOCC1
43 | < 10 | CN(C)C(=O)COc1ccc(-c2[nH]nc3c2C(=O)c2c(NC(=O)NN4CCOCC4)cccc2-3)cc1
44 | < 100 | Cc1cc(OCCn2cccn2)ccc1-c1[nH]nc2c1C(=O)c1c(NC(=O)NN3CCN(C)CC3)cccc1-2
45 | < 100 | CN(C)C(=O)CN1CCN(NC(=O)Nc2cccc3c2C(=O)c2c-3n[nH]c2-c2ccc(OCCN3CCCC3)cc2)CC1
46 | < 10 | CC(C)c1nn(-c2c(Cl)cc(Cl)cc2Cl)c2nc(Cc3ccc(OCCN4CCN(C(C)C)CC4)cc3)[nH]c(=O)c12
47 | < 10 | CC(C)N1CCN(CCOc2ccc(-c3n[nH]c4c3C(=O)c3c(NC(=O)NN5CCOCC5)cccc3-4)cc2F)CC1
48 | < 100 | CN1CCN(Cc2ccc(-c3n[nH]c4c3C(=O)c3c(NC(=O)NN5CCOCC5)cccc3-4)cc2)CC1
49 | < 100 | CC(C)c1nn(-c2c(Cl)cc(Cl)cc2Cl)c2nc(Cc3ccc(CN4CCCC4)n3C)[nH]c(=O)c12
50 | < 100 | CN1CCN(CCOc2ccc(-c3n[nH]c4c3C(=O)c3c(NC(=O)NN5CCN(C)CC5)cccc3-4)c(F)c2)CC1
51 | < 10 | CC(C)c1nn(-c2c(Cl)cc(Cl)cc2Cl)c2nc(Cc3ccc(CNC(CO)CO)n3C)[nH]c(=O)c12
52 | < 100 | O=C(Nc1cccc2c1C(=O)c1c(-c3ccc(CN4CCC(O)CC4)cc3)n[nH]c1-2)NN1CCOCC1
53 | < 100 | Cc1cc(-c2[nH]nc3c2C(=O)c2c(NC(=O)NN4CCN(C)CC4)cccc2-3)ccc1OCCN1CCCC1
54 | < 100 | CC(C)OC(=O)CN1CCN(NC(=O)Nc2cccc3c2C(=O)c2c-3n[nH]c2-c2ccc(OCCN3CCCC3)cc2)CC1
55 | < 100 | CC(C)c1nn(-c2c(Cl)cc(Cl)cc2Cl)c2nc(Cc3ccc(NS(=O)(=O)CCCN4CCCC4)cc3)[nH]c(=O)c12

Row | SMILES | IC50 [nM]
56 | CC(C)N1CCN(C(=O)COc2ccc(-c3n[nH]c4c3C(=O)c3c(NC(=O)NN5CCOCC5)cccc3-4)cc2)CC1 | < 100
57 | CC(C)N1CCN(C(=O)COc2ccc(-c3[nH]nc4c3C(=O)c3c(NC(=O)NN5CCOCC5)cccc3-4)cc2)CC1 | < 100
